In ChEMBL document CHEMBL5252612, “A novel selective estrogen receptor degrader induces cell cycle arrest in breast cancer via ERα degradation and the autophagy-lysosome pathway” (Bioorg Med Chem, 2023):
The source made the active and inactive calls. No cut-off for these calls is given here.

Experiments:
T47D [1] = test: Induction of autophagy in human T47D cells assessed as downregulation of MYC protein expression incubated for 24 hrs by western blot analysis; assay type: functional, cell-based; conditions: dose 1-5 µM
T47D [2] = test: Induction of autophagy in human T47D cells assessed as increase in LC3 protein expression by western blot analysis; assay type: functional, cell-based
T47D [3] = test: Induction of autophagy in human T47D cells assessed as increase in autophagosome number by measuring LC3 puncta formation by immunofluorescence assay; assay type: functional, cell-based
T47D [4] = test: Induction of autophagy in human T47D cells assessed as increase in lysosome number by LysoTracker dye based confocal microscopy; assay type: functional, cell-based
MCF7 = test: Antitumor activity against human MCF7 cells xenografted in BALB/c nude mouse assessed as reduction in tumor volume at 4 mg/kg, ip administered every other day by caliper analysis; assay type: functional, organism-based
[5] = Anticancer activity against ER-alpha positive human LCC2 cells assessed as reduction in cell viability measured after 48 hrs by CCK8 assay; assay type: functional, cell-based; conditions: lcc2

Compound	Activity (T47D [1])	Activity (T47D [2])	Activity (T47D [3])	Activity (T47D [4])	Activity (MCF7)	IC50 [5]
CO[C@H]1C[C@@H]2CC[C@@H](C)[C@@](O)(O2)C(=O)C(=O)N2CCCC[C@H]2C(=O)O[C@H]([C@H](C)C[C@@H]2CC[C@@H](O)[C@H](OC)C2)CC(=O)[C@H](C)/C=C(\C)[C@@H](O)[C@@H](OC)C(=O)[C@H](C)C[C@H](C)/C=C/C=C/C=C/1C	Dose-Dependent Effect					
C[C@]12CC[C@@H]3c4ccc(O)cc4C[C@@H](CCCCCCCCC[S+]([O-])CCCC(F)(F)C(F)(F)F)[C@H]3[C@@H]1CC[C@@H]2O (some centres undefined)		Active	Active	Active	Active	
CC/C(=C(\c1ccccc1)c1ccc(OCCN(C)C)cc1)c1ccccc1 [TAMOXIFEN]		Active	Active	Active		Not Active
